One series addresses T1, CDK2 (Homo sapiens, UniProt P24941).
T1 construct: made in house
Description: Liability panel screening by DSF: CDK2. It counts as binding. The conditions noted are these: DSF, 20 µM, n=2; read-out: Mean ΔTM CDK2. The essentials: (§1)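 ∆Tm in K was taken from Boltzmann-fitted unfolding inflection points, run in duplicate with a temperature ramp of 3 °C per minute up to 85 °C. Each recombinant protein (2 µM) was in HEPES 10 mM pH 7.5 and NaCl 500 mM, with SYPRO Orange dye at 1:1000.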

The next series deals with T2, ABL1 (Homo sapiens, UniProt P00519).
T2 construct: made in house
Description: Liability panel screening by DSF: ABL1. It counts as binding. The note with it: DSF, 20 µM, n=2; read-out: Mean ΔTM ABL1. An outline of the steps:
as §1
(In general: Differential scanning fluorimetry follows unfolding on heating by fluorescence.)

In another series the target is T3, CSNK1D (Homo sapiens, UniProt P48730).
T3 construct: made in house
Description: Liability panel screening by DSF: CSNK1D. The note with it: DSF, 20 µM, n=2; read-out: Mean ΔTM CSNK1D. It counts as binding. An outline of the steps:
as §1

In another series the target is T4, GSK3B (Homo sapiens, UniProt P49841).
T4 construct: made in house
The experiment in a line: Liability panel screening by DSF: GSK3B. It counts as binding. The note with it: DSF, 20 µM, n=2; read-out: Mean ΔTM GSK3B.

A further series has as its target T5, TRIM24 (Homo sapiens, UniProt O15164).
T5 construct: This panel comprised ten highly ligandable kinases and bromodomains; made in house
T5 sequence (O15164 899-1004 limits assumed): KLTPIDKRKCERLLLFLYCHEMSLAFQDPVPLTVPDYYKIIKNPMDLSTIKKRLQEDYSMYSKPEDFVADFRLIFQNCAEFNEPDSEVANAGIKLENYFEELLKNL
Description: Liability panel screening by DSF: TRIM24. It counts as binding. The conditions noted are these: DSF, 20 µM, n=2; read-out: Mean ΔTM TRIM24. The essentials:
as §1

A further series deals with Gal4-VP16. It counts as cell-based. The conditions noted are these: 1 µM.
Series [1] relates to HEK293T cells. The experiment in a line: Cytotoxicity: apoptosis induction (caspase-3/7 DEVD fluorogenic DNA dye). The note with it: 1 µM, single replicates, DMSO 0.1% = 1.00.
The test system of series [2] is HEK293T cells. Description: Cytotoxicity: growth-rate (change in confluence over 24 h). The note with it: 1 µM, normalized to 0.1% DMSO control, single replicates (n=1...).
For another series, the target named is T6, AURKA (Homo sapiens, UniProt O14965).
T6 construct: made in house
T6 sequence (O14965 1-403): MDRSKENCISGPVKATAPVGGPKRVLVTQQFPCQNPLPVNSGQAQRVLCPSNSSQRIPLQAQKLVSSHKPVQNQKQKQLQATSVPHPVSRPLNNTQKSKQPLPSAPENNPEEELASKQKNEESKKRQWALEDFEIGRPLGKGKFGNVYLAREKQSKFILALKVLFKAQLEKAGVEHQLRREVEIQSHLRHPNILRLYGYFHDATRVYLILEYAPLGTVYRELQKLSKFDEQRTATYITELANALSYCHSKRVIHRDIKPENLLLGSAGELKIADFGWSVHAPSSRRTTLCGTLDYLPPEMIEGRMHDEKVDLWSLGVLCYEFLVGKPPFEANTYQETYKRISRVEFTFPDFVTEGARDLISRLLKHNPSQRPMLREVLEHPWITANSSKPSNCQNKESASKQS
The experiment in a line: Liability panel screening by DSF: AURKA. It counts as binding. The note with it: DSF, 20 µM, n=2; read-out: Mean ΔTM AURKA. The essentials: as §1

The test system of series [3] is HEK293T cells. Description: Cytotoxicity: metabolic activity (WST-8 / CCK-8 assay). The note with it: 1 µM, single replicates, DMSO 0.1% = 1.00. Background: Tetrazolium assays rely on reduction of a dye to a coloured formazan, in cell work by metabolically active cells.
For a further series, the target named is T7, BRD4 (Homo sapiens, UniProt O60885).
T7 construct: This panel comprised ten highly ligandable kinases and bromodomains; made in house
The experiment in a line: Liability panel screening by DSF: BRD4. It counts as binding. The note with it: DSF, 20 µM, n=2; read-out: Mean ΔTM BRD4. An outline of the steps: as §1

Values joined by “and” are separate entries in the source; they are usually repeats but may differ in a detail not shown here. Equal values may be shown once.

T3 sequence (P48730 whole entry, species assumed): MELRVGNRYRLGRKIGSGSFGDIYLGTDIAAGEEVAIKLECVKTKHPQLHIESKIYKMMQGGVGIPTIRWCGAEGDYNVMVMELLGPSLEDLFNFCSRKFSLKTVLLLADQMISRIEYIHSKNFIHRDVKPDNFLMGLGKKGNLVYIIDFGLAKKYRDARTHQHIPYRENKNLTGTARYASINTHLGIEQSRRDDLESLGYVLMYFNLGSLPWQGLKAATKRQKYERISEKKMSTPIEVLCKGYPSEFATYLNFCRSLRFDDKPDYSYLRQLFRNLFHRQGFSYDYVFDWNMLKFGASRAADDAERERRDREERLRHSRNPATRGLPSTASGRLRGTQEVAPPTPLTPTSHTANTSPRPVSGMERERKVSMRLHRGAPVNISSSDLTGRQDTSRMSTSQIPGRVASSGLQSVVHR
T4 sequence (P49841 whole entry, species assumed): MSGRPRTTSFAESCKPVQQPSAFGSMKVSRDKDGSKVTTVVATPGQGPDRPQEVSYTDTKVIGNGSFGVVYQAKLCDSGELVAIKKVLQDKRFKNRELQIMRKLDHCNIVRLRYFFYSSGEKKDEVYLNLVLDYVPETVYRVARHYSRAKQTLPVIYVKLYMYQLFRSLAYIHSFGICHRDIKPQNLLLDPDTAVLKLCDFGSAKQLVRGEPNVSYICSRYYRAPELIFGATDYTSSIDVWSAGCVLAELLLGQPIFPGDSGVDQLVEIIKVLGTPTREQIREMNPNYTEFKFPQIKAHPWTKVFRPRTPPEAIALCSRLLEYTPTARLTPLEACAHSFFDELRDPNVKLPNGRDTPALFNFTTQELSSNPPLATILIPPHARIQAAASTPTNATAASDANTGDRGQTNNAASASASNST
T2 sequence (P00519 whole entry, species assumed): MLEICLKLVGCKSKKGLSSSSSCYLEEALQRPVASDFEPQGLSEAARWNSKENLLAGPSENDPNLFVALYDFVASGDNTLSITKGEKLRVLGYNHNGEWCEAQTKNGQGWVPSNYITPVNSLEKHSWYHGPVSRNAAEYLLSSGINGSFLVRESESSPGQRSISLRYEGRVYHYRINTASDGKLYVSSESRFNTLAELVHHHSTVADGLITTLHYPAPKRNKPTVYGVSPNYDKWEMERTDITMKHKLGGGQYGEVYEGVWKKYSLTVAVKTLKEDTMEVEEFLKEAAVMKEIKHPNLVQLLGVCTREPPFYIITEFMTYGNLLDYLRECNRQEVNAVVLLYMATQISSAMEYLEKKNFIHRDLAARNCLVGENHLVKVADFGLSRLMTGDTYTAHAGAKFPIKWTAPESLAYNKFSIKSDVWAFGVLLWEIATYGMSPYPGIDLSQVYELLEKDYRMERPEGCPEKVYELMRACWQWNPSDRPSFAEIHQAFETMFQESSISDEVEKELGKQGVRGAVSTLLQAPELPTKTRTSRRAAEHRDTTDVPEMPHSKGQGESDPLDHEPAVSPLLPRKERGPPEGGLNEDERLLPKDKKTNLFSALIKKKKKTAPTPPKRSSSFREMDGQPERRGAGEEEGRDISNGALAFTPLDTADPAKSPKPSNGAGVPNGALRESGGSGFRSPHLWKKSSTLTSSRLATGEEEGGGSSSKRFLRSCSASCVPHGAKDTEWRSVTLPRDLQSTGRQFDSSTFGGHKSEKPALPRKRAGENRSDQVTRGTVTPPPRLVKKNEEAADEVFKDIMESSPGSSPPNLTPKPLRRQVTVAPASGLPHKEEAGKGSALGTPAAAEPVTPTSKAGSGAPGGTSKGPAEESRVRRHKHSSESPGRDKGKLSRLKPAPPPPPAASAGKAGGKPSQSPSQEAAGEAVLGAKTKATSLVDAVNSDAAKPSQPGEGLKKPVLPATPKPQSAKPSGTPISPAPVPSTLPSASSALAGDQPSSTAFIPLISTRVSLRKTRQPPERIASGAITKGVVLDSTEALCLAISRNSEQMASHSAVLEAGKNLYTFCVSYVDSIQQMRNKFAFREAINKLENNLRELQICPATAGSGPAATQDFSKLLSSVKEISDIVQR

As usually defined, the ΔTm is the change in melting temperature against a reference sample. Take `CC/C(=C(/c1ccc(/C=C/C(=O)O)cc1)c1ccc2[nH]ncc2c1)c1ccc(F)cc1Cl` [ARN810]: the ΔTm at 20 µM was -3.66 °C at CDK2; -5.16 °C at ABL1; -4.37 °C at CSNK1D; 3.37 °C at GSK3B; 0 °C at TRIM24; 1.69 °C at AURKA. On BRD4, the shift in melting temperature (ΔTm) at 20 µM is -0.16 °C. Also, the “VP16 control [fold reporter gene activity] (n=3), n=1” value with Gal4-VP16 (replicate n=1) amounted to 1.06 fold. Also, the “VP16 control [fold reporter gene activity] (n=3), n=2” value in the series on Gal4-VP16 (replicate n=2) is 1.05 fold. Besides, in the series with Gal4-VP16 (replicate n=3), the “VP16 control [fold reporter gene activity] (n=3), n=3” value is on record as 1.02 fold. Moreover, the “Apoptosis induction [AI]” value in the series with HEK293T cells [1] was 0.78 and 0.92. The “Growth rate [GR]” value with HEK293T cells [2] was 0.88 and 0.90 and 1.13 and 0.87 and 1.11 and 0.85. The “Metabolic activity [MA]” value in the series on HEK293T cells [3] is 0.99 and 1.09 and 0.98 and 0.97 and 1.01 and 1.03.
